Measurements from publication PMC7866232, “New Substituted 5-Benzylideno-2-Adamantylthiazol[3,2-b][1,2,4]Triazol-6(5H)ones as Possible Anti-Inflammatory Agents” (Molecules, 2021).
Read-outs that look alike come from different tables or passages of the source.

Columns and labels:
[1] = tested on: carrageenin-induced mouse paw edema; experiment: Carrageenin-induced mouse paw edema (CPE), in vivo anti-inflammatory activity; conditions: for inhibition in vivo at 10 µmol/kg: Mus musculus, ip, mice, 0.01 mmol/kg body weight intraperitoneally, given simultaneously with carrageenin (2%, 0.05 mL); for increased anti-inflammatory activity compared to indomethacin: carrageenin paw edema, relative to indomethacin
Description: The in vivo anti-inflammatory effect of the tested compounds was assessed by using the functional model of carrageenin-induced mouse paw edema and is presented as the percentage of inhibition of induction of edema at the right hind paw (Table 1).
Edema was measured by weight increase of the right hind paw in comparison to the […] left paw.
Twenty-five thiazolo[3,2-b]1,2,4-triazole derivatives, previously synthesized were evaluated for their anti-inflammatory activity, in vivo using groups of 6–10 mice of R’’’ strain.
The anti-inflammatory activity of the compounds synthesized was studied with the Carragenin-Induced Paw Edema acute inflammation test using an aqueous carrageenin solution (2%, 0,05 mL), [14] which was injected intradermally in the footpad of the right hind limb muscle (mice R’’’ groups of 6–10 animals), whereas the left end serves as a reference. In the experimental procedure both sex male mice were used, excluding pregnant. Animals were fasted during the time of the experiment. The tested compounds (0.01 mmol/kg body weight), were suspended in water, with few drops of Tween 80 and ground in a mortar before use and were given intraperitoneally simultaneously with the carrageenin injection.

ovine COX-1 = biological target: T1, ovine COX-1 (Ovis aries, UniProt P05979); experiment: COX inhibitor screening assay in vitro, COX-1; type: biochemical; conditions: for inhibition at 200 µM: read-out: COX-1 (%) inhibition
T1 construct: purchased Cayman Chemical Co., Ann Arbor, MI, USA
T1 sequence (P05979 25-600): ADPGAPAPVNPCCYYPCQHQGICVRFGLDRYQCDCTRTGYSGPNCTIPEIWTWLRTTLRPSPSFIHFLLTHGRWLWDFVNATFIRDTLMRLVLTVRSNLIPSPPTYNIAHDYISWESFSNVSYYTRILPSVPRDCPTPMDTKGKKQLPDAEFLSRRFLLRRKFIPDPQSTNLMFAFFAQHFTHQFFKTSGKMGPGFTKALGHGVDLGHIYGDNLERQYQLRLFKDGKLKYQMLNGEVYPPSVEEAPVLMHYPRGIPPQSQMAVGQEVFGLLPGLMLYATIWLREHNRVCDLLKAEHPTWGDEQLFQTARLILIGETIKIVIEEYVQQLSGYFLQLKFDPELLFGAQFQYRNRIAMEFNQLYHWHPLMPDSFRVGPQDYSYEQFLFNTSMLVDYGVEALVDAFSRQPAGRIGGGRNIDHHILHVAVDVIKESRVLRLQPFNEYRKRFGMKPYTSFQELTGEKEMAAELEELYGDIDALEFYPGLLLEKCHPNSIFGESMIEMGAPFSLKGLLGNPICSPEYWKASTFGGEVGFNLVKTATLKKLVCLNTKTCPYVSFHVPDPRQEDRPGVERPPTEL
Description: (§1) The COX-1 and COX-2 activities of the compounds were measured using ovine COX-1 and human recombinant COX-2 enzymes included in the “COX I inhibitor Screening Assay” kit provided by Cayman (Cayman Chemical Co., Ann Arbor, MI, USA). The assay directly measures PGF2 a produced by SnCl2 reduction of COX-derived PGH2. The prostanoid production was quantified via enzyme immunoassay using a broadly specific antibody that binds to all the major prostaglandin compounds. […]

human recombinant COX-2 = biological target: T2, human recombinant COX-2 (Homo sapiens, UniProt P35354); experiment: COX inhibitor screening assay in vitro, COX-2; type: biochemical; conditions: for inhibition at 200 µM: read-out: COX-2 (%) inhibition
T2 construct: purchased Cayman Chemical Co., Ann Arbor, MI, USA
T2 sequence (P35354 18-604): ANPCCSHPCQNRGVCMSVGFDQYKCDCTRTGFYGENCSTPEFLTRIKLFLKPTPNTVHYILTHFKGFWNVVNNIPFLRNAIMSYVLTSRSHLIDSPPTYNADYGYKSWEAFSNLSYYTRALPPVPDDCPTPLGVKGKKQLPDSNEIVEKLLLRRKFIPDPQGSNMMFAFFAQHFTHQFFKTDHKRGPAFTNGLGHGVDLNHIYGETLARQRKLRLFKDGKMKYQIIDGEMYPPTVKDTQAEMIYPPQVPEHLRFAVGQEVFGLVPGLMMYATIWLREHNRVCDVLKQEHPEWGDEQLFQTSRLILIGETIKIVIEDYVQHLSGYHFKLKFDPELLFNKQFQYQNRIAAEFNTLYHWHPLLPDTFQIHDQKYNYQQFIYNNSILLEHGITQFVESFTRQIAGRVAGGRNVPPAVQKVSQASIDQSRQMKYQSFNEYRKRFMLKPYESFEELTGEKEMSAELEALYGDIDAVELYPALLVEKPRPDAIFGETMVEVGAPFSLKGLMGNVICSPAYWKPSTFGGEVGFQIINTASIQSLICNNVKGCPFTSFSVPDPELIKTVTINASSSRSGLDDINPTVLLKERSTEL
Description: as §1

soybean lipoxygenase = biological target: T3, soybean lipoxygenase (Glycine max, UniProt P08170); experiment: Soybean lipoxygenase inhibition in vitro; type: biochemical; conditions: 0.1 mM sodium linoleate, 234 nm
T3 sequence (P08170 1-839): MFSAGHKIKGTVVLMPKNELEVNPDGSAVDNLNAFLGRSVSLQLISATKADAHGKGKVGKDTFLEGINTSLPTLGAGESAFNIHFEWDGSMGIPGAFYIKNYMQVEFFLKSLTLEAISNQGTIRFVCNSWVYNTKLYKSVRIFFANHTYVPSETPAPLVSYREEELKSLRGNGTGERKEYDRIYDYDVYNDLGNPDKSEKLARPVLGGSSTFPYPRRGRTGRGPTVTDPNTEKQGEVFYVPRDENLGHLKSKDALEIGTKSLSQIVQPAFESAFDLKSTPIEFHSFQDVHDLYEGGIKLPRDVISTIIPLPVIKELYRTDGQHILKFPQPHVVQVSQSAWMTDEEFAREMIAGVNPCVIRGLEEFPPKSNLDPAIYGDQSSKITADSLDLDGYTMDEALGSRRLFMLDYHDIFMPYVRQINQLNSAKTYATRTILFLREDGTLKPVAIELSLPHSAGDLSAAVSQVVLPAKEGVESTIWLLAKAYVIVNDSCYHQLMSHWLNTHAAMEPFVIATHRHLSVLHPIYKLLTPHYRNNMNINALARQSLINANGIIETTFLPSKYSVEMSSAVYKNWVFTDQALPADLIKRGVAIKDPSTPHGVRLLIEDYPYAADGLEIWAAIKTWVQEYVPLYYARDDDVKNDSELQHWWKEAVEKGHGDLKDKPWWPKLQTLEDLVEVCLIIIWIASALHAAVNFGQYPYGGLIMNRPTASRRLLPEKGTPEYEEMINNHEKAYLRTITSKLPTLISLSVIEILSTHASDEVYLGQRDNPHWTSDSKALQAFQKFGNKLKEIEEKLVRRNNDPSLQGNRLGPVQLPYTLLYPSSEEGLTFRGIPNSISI
Description: The compounds tested were dissolved in DMSO and preincubated for 4 min at 28 °C in the presence of 753 U/mL 5-soybean lipoxygenase (5-LOX). The enzyme reaction was triggered by addition of a final concentration of 0.1 mM sodium linoleate. The conversion of sodium linoleate 13-hydrouperoxylinoleic acid was measured at 234 nm. Absorbance was measured at time 0 and 3 min.

[2] = at 200 μM, 0.1 μM arachidonic acid

| SMILES | inhibition in vivo at 10 µmol/kg [1] [%] | inhibition at 200 µM (ovine COX-1; [2]) [%] | inhibition at 200 µM (human recombinant COX-2; [2]) [%] | LOX (%) inhibition (soybean lipoxygenase) [%] | also measured |
| --- | --- | --- | --- | --- | --- |
| O=c1/c(=C/c2ccc(F)cc2)sc2nc(C34CC5CC(CC(C5)C3)C4)nn12 [Compound 16] | 51 to 67 | 19 | 0 | 16.13 | – |
| O=c1/c(=C/c2ccccc2)sc2nc(C34CC5CC(CC(C5)C3)C4)nn12 [Compound 1] | 40 to 49 | – | – | – | – |
| COc1ccc(/C=c2\sc3nc(C45CC6CC(CC(C6)C4)C5)nn3c2=O)cc1OC [Compound 9] | 40 to 49 | – | – | – | – |
| O=c1/c(=C/c2cccc(Br)c2)sc2nc(C34CC5CC(CC(C5)C3)C4)nn12 [Compound 18] | 51 to 67 | 0 | 37 | 31.43 | – |
| O=c1/c(=C/c2ccc(Cl)cc2Cl)sc2nc(C34CC5CC(CC(C5)C3)C4)nn12 [Compound 24] | 37 | – | – | – | – |
| O=c1/c(=C/c2ccc(Cl)cc2)sc2nc(C34CC5CC(CC(C5)C3)C4)nn12 [Compound 22] | 51 to 67 | – | – | – | – |
| O=c1/c(=C/c2cccc([N+](=O)[O-])c2)sc2nc(C34CC5CC(CC(C5)C3)C4)nn12 [Compound 13] | 15 | – | – | – | – |
| O=c1/c(=C/c2ccc(O)cc2)sc2nc(C34CC5CC(CC(C5)C3)C4)nn12 [Compound 3] | 37 | 93 | 25 | 28.58 | COX-1 IC50 fold lower than that of naproxen (ovine COX-1): 30 fold; IC50 (ovine COX-1): 1.28 µM |
| COc1cccc(/C=c2\sc3nc(C45CC6CC(CC(C6)C4)C5)nn3c2=O)c1O [Compound 5] | 51 to 67 | – | – | – | increased anti-inflammatory activity compared to indomethacin [1]: 23% |
| O=c1/c(=C/c2cccc(O)c2)sc2nc(C34CC5CC(CC(C5)C3)C4)nn12 [Compound 2] | 36 | 18 | 64 | 5.82 | IC50 (human recombinant COX-2): > 50 µM |
| O=c1/c(=C/c2ccccc2[N+](=O)[O-])sc2nc(C34CC5CC(CC(C5)C3)C4)nn12 [Compound 12] | 40 to 49 | – | – | – | – |
| CN(C)c1ccc(/C=c2\sc3nc(C45CC6CC(CC(C6)C4)C5)nn3c2=O)cc1 [Compound 11] | 51 to 67 | – | – | – | – |
| O=c1/c(=C/c2cccc(Cl)c2Cl)sc2nc(C34CC5CC(CC(C5)C3)C4)nn12 [Compound 23] | 37 | 46 | 20 | 11.43 | – |
| O=c1/c(=C/c2ccc([N+](=O)[O-])cc2)sc2nc(C34CC5CC(CC(C5)C3)C4)nn12 [Compound 14] | 40 to 49 | – | – | – | – |
| O=c1/c(=C/c2ccccc2Cl)sc2nc(C34CC5CC(CC(C5)C3)C4)nn12 [Compound 20] | 40 to 49 | – | – | – | – |
| COc1ccc2cc([C@H](C)C(=O)O)ccc2c1 [Naproxen, reference compound] | – | – | – | – | inhibition at 200 µM (ovine COX-1): 60%; inhibition at 200 µM (human recombinant COX-2): 65% |
| COc1ccc(/C=c2\sc3nc(C45CC6CC(CC(C6)C4)C5)nn3c2=O)cc1 [Compound 8] | 51 to 67 | 60.5 | 0 | 5.72 | increased anti-inflammatory activity compared to indomethacin [1]: 32%; IC50 (ovine COX-1): 41.9 µM; COX-2 (%) inhibition (human recombinant COX-2; [2]): completely inactive |
| O=c1/c(=C/c2cccc(Cl)c2)sc2nc(C34CC5CC(CC(C5)C3)C4)nn12 [Compound 21] | 40 to 49 | – | – | – | – |
| O=c1/c(=C/c2cccc(F)c2)sc2nc(C34CC5CC(CC(C5)C3)C4)nn12 [Compound 15] | 51 to 67 | 36 | 23 | 27.15 | – |
| COc1cc(/C=c2\sc3nc(C45CC6CC(CC(C6)C4)C5)nn3c2=O)cc(OC)c1OC [Compound 10] | 40 to 49 | – | – | – | – |
| O=c1/c(=C/c2ccccc2Br)sc2nc(C34CC5CC(CC(C5)C3)C4)nn12 [Compound 17] | 51 to 67 | 16 | 0 | 17.15 | – |
| O=c1/c(=C/c2ccc(Br)cc2)sc2nc(C34CC5CC(CC(C5)C3)C4)nn12 [Compound 19] | 51 to 67 | 16 | 36 | 8.07 | – |
| O=c1/c(=C/c2c(Cl)cccc2Cl)sc2nc(C34CC5CC(CC(C5)C3)C4)nn12 [Compound 25] | 32 | – | – | – | – |
| O=c1/c(=C/c2ccc(O)cc2O)sc2nc(C34CC5CC(CC(C5)C3)C4)nn12 [Compound 4] | 40 to 49 | – | – | – | – |
